Results from patent publication US20180194762A1 (Pharmacyclics LLC, priority 2017, published 2018).
Read-outs that look alike come from different tables or passages of the source.

Columns and labels:
Assay type in all cases: biochemical
TEC = target: T1, TEC (Homo sapiens, UniProt P42680); experiment: Inhibition of a panel of kinases (in vitro HotSpot kinase assay, 33P-ATP, 1 μM ATP); conditions: for IC50: HotSpot kinase assay, 1 μM ATP; for TEC/Btk: ratio of TEC IC50 to Btk IC50 (selectivity)
T1 sequence (P42680 1-631): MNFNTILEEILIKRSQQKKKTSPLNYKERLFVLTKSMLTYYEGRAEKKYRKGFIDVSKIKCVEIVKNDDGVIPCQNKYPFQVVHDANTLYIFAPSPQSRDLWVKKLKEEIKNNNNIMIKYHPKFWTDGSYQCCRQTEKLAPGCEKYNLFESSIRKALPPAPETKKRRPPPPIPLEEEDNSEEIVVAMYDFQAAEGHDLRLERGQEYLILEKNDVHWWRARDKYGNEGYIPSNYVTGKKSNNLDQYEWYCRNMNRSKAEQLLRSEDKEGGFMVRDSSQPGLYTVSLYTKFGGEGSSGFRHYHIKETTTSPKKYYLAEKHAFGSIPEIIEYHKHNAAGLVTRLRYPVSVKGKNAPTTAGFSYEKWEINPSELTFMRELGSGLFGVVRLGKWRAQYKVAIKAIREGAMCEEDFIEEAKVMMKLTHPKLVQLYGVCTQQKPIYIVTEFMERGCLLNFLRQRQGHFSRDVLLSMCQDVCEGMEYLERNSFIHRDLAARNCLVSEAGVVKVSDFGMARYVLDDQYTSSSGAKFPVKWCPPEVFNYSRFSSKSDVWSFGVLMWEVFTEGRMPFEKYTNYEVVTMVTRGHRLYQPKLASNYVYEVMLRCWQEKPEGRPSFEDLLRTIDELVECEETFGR
Protocol: (§1) Example 63: Inhibition of a Panel of Kinases The degree of inhibition of a panel of kinases is determined using the in vitro HotSpot kinase assay (purified enzymes, ^33P-ATP, an appropriate substrate and 1 μM ATP).

Btk = target: T2, Btk (Homo sapiens, UniProt Q06187); experiment: Btk in vitro inhibitory activity (one of Method A TR-FRET, Method B electrophoretic mobility shift, Method C radiometric filter binding)
T2 construct: purified from insect cells as a full-length construct containing a N-terminal 6X-His tag; His6 (N); made in house; host or cells: insect cells (Method C)
T2 sequence (Q06187 whole entry): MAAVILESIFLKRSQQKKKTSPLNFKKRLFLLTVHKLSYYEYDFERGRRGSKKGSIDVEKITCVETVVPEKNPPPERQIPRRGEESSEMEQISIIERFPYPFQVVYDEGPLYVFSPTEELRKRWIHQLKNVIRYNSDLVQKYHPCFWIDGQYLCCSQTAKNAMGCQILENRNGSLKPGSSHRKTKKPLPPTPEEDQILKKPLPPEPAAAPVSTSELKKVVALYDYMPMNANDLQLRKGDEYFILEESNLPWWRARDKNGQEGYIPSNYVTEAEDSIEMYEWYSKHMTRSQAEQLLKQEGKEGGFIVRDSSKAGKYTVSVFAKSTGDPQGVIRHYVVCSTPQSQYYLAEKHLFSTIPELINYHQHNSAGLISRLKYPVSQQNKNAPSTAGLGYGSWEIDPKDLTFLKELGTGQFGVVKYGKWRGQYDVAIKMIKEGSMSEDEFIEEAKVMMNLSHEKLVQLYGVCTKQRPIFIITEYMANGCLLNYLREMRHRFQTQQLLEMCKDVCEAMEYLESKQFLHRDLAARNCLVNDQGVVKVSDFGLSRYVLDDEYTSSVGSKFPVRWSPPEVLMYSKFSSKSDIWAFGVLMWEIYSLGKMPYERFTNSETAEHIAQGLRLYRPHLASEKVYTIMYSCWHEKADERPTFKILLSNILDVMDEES
Protocol: Example 62a: Btk In Vitro Inhibitory Activity (Method A)
Btk kinase activity is determined using a time-resolved fluorescence resonance energy transfer (TR-FRET) methodology. Measurements are performed in a reaction volume of 50 μL using 96-well assay plates. […] The reaction is quenched by the addition of 1.2 equivalents of EDTA (relative to divalent cation) in 25 μL of 1× Lance buffer (Perkin-Elmer). Streptavidin-APC (Perkin-Elmer) and Eu-labeled p-Tyr100 antibody (Perkin-Elmer) in 1× Lance buffer are added in a 25 μL volume to give final concentrations of 100 nM and 2.5 nM, respectively, and the mixture is allowed to incubate for one hour. The TR-FRET signal is measured on a multimode plate reader with an excitation wavelength (λEx) of 330 nm and detection wavelengths (λEm) of 615 and 665 nm. Activity is determined by the ratio of the fluorescence at 665 nm to that at 615 nm. For each compound, enzyme activity is measured at various concentrations of compound. Negative control reactions are performed in the absence of inhibitor in replicates of six, and two no-enzyme controls are used to determine baseline fluorescence levels. Inhibition constants, Ki(app), were obtained using the program BatchKi (Kuzmic et al. (2000), Anal. Biochem. 286:45-50). IC50s are obtained according to the equation:
IC50={Ki(app)/(1+[ATP]/Km^ATP)}+[E]total/2;
For all kinases, [ATP]=Km^ATP, [Btk]total=0.5 nM and [Lck]total=6 nM.
Example 62b: Btk In Vitro Inhibitory Activity (Method B)
Kinase activity is measured in vitro using electrophoretic mobility shift assay. The kinase reactions are assembled in a total volume of 25 μL in 384 well plates. The reactions comprise: BTK enzyme (1 nM, N-terminal His6-tagged, recombinant, full-length, human BTK purified from baculovirus Sf21 insect cell system, 293HEK, or other suitable source), inhibitor, ATP, fluorescently labeled peptide substrate (1 μM, FAM-GEEPLYWSFPAKKK-NH2) in a reaction buffer composed of 100 mM HEPES, pH7.5, 5 mM MgCl2 1 mM DTT, 0.1% bovine serum albumin, 0.01% Triton X-100, and 1% DMSO. The reaction is incubated and is quenched by the addition of termination buffer (100 mM HEPES, pH 7.5, 0.01% Triton X-100, 30 mM EDTA). The terminated reactions are analyzed using a 12 channel LabChip® 3000 microfluidic detection instrument (Caliper Life Sciences). The enzymatic phosphorylation of the peptide results in a change in net charge, enabling electrophoretic separation of product from substrate peptide. As substrate and product peptides are separated, two peaks of fluorescence are observed. Change in the relative fluorescence intensity of the substrate and product peaks is the parameter measured, reflecting enzyme activity. In the presence of an inhibitor, the ratio between product and substrate is altered: the signal of the product decreases, while the signal of the substrate increases.
Activity in each sample is determined as the product to sum ratio (PSR):P/(S+P), where P is the peak height of the product peptide and S is the peak height of the substrate peptide. For each compound, enzyme activity is measured at various concentrations (12 concentrations of compound spaced by 3× dilution intervals). Negative control samples (0%—inhibition in the absence of inhibitor) and positive control samples (100%—inhibition, in the presence of 20 mM EDTA) are assembled in replicates of four and are used to calculate %—inhibition values for each inhibitor at each concentration. Percent inhibition (Pinh) is determined using following equation:
Pinh=(PSR0%−PSRinh)/(PSR0%−PSR100%)*100, where PSRinh is the product sum ratio in the presence of inhibitor, PSR0% is the average product sum ration in the absence of inhibitor and PSR100% is the average product sum ratio in 100%—inhibition control samples.
The IC50 values of inhibitors are determined by 4 parameter sigmoidal dose-response model fitting of the inhibition curves (Pinh versus inhibitor concentration) using XLfit 4 software. […]

panel of kinases = target: T3, panel of kinases (Homo sapiens, UniProt P51813); experiment: Inhibition of a panel of kinases (in vitro HotSpot kinase assay, 33P-ATP, 1 μM ATP), other kinases; conditions: BMX wild-type, read-out: BMX-WT IC50
T3 sequence (P51813 1-675): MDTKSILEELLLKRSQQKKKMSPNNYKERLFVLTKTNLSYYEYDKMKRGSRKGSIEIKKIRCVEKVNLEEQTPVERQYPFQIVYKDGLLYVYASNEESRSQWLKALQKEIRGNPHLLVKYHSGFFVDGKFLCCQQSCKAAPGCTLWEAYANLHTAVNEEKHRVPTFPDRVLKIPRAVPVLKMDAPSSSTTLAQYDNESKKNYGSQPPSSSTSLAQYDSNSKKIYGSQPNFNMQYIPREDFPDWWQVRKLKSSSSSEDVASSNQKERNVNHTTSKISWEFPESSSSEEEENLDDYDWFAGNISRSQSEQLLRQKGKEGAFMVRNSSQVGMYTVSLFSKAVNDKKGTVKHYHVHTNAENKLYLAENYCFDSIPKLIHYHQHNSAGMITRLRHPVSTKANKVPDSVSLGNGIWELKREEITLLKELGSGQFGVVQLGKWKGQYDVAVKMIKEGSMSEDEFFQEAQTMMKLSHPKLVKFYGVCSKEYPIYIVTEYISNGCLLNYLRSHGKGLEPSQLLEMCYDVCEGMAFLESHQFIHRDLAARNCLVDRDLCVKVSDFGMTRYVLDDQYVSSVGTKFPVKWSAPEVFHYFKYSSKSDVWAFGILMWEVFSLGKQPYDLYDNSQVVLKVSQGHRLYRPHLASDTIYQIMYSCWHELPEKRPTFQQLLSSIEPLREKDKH
Protocol: as §1

[1] = wild-type Btk, read-out: Btk-WT IC50

Compound: C[C@H](NC(=O)c1noc(C(C)(C)C)n1)c1ccc(-c2ccnc3[nH]nc(N[C@@H]4CCN(C=O)C4)c23)cc1 [Example 96, 5-tert-butyl-N-[(1S)-1-[4-(3-{[(3R)-1-formylpyrrolidin-3-yl]amino}-1H-pyrazolo[3,4-b]pyridin-4-yl)phenyl]ethyl]-1,2,4-oxadiazole-3-carboxamide]
- IC50 (TEC): 9640 nM
- IC50 (Btk; [1]): > 10000 nM

Compound: C[C@@H](NC(=O)c1noc(C(C)(C)C)n1)c1ccc(-c2ccnc3[nH]nc(N[C@@H]4CCN(C=O)C4)c23)cc1 [Example 99, 5-tert-butyl-N-[(1R)-1-[4-(3-{[(3R)-1-formylpyrrolidin-3-yl]amino}-1H-pyrazolo[3,4-b]pyridin-4-yl)phenyl]ethyl]-1,2,4-oxadiazole-3-carboxamide]
- IC50 (TEC): 1430 nM
- TEC/Btk (TEC): 321
- IC50 (Btk; method is one of A, B or C, not stated which, read-out: IC50 values against Btk): < 10 nM
- IC50 (Btk; [1]): 4.46 nM

Compound: C[C@@H]1[C@H](Nc2n[nH]c3nccc(-c4ccc(CNC(=O)c5noc(C(C)(C)C)n5)c(F)c4)c23)CCCN1C(=O)N1CCCC1 [Example 136, 5-tert-butyl-N-{[2-fluoro-4-(3-{[(2R,3R)-2-methyl-1-(pyrrolidine-1-carbonyl)piperidin-3-yl]amino}-1H-pyraozlo[3,4-b]pyridin-4-yl)phenyl]methyl}-1,2,4-oxadiazole-3-carboxamide]
- IC50 (TEC): 7930 nM
- TEC/Btk (TEC): 61
- IC50 (Btk; [1]): 129 nM

Compound: C[C@@H]1[C@H](Nc2n[nH]c3nccc(-c4ccc(CNC(=O)c5noc(C(C)(C)C)n5)c(F)c4)c23)CCCN1C(=O)NCC(F)(F)F [Example 137, (2R,3R)-3-{[4-(4-{[(5-tert-butyl-1,2,4-oxadiazol-3-yl)formamido]methyl}-3-fluorophenyl)-1H-pyrazolo[3,4-b]pyridin-3-yl]amino}-2-methyl-N-(2,2,2-trifluoroethyl)piperidine-1-carboxamide]
- IC50 (TEC): > 10000 nM
- IC50 (Btk; [1]): > 10000 nM

Compound: C[C@@H]1[C@H](Nc2n[nH]c3nccc(-c4ccc(CNC(=O)c5noc(C(C)(C)C)n5)c(F)c4)c23)CCCN1C(=O)CC#N [Example 139, 5-tert-butyl-N-{[4-(3-{[(2R,3R)-1-(2-cyanoacetyl)-2-methylpiperidin-3-yl]amino}-1H-pyrazolo[3,4-b]pyridin-4-yl)-2-fluorophenyl]methyl}-1,2,4-oxadiazole-3-carboxamide]
- IC50 (TEC): 5760 nM
- TEC/Btk (TEC): 124
- IC50 (Btk; [1]): 46.4 nM

Compound: C[C@@H]1[C@H](Nc2n[nH]c3nccc(-c4ccc(CNC(=O)c5noc(C(C)(C)C)n5)c(F)c4)c23)CCCN1S(=O)(=O)C1CC1 [Example 141, 5-tert-butyl-N-{[4-(3-{[(2R,3R)-1-(cyclopropanesulfonyl)-2-methylpiperidin-3-yl]amino}-1H-pyrazolo[3,4-b]pyridin-4-yl)-2-fluorophenyl]methyl}-1,2,4-oxadiazole-3-carboxamide]
- IC50 (TEC): 3050 nM
- TEC/Btk (TEC): 102
- IC50 (Btk; [1]): 30 nM

Compound: C[C@@H]1[C@H](Nc2n[nH]c3nccc(-c4ccc(CNC(=O)c5noc(C(C)(C)C)n5)c(F)c4)c23)CCCN1CC#N [Example 142, 5-tert-butyl-N-{[4-(3-{[(2R,3R)-1-(cyanomethyl)-2-methylpiperidin-3-yl]amino}-1H-pyrazolo[3,4-b]pyridin-4-yl)-2-fluorophenyl]methyl}-1,2,4-oxadiazole-3-carboxamide]
- IC50 (TEC): 4170 nM
- TEC/Btk (TEC): 197
- IC50 (Btk; [1]): 21.2 nM

Compound: Cc1nc(C(=O)NCc2ccc(-c3ccnc4[nH]nc(N[C@@H]5CC[C@H](C)N(C(=O)N(C)C)C5)c34)cc2F)oc1C [Example 194, (2S,5R)-5-{[4-(4-{[(4,5-dimethyl-1,3-oxazole-2-carbonyl)amino]methyl}-3-fluorophenyl)-1H-pyrazolo[3,4-b]pyridin-3-yl]amino}-N,N,2-trimethylpiperidine-1-carboxamide]
- IC50 (panel of kinases): 4860 nM

Compound: CC(C)(C)c1nc(C(=O)NC2(c3ccc(-c4ccnc5[nH]nc(NC6CCCN(C=O)C6)c45)cc3)CC2)no1 (centres unmarked) [Example 271, 5-tert-butyl-N-[1-(4-{3-[(1-formylpiperidin-3-yl)amino]-1H-pyrazolo[3,4-b]pyridin-4-yl}phenyl)cyclopropyl]-1,2,4-oxadiazole-3-carboxamide]
- IC50 (TEC): 5870 nM
- TEC/Btk (TEC): 053
- IC50 (Btk; [1]): 111 nM

Compound: CC(C)(C)c1nc(C(=O)NCc2ccc(-c3ccnc4[nH]nc(O[C@@H]5CCN(C=O)C5)c34)cc2F)no1 [Example 273, 5-tert-butyl-N-[(2-fluoro-4-{3-[(1-formylpyrrolidin-3-yl)oxy]-1H-pyrazolo[3,4-b]pyridin-4-yl}phenyl)methyl]-1,2,4-oxadiazole-3-carboxamide]
- IC50 (TEC): 1090 nM
- TEC/Btk (TEC): 287
- IC50 (Btk; [1]): 3.8 nM

Compound: CC(=O)N[C@@H]1CCN(c2n[nH]c3nccc(-c4ccc(CNC(=O)c5ccc(C(C)(C)O)cc5F)c(F)c4)c23)C1 [Example 423, N-[(4-{3-[(3R)-3-acetamidopyrrolidin-1-yl]-1H-pyrazolo[3,4-b]pyridin-4-yl}-2-fluorophenyl)methyl]-2-fluoro-4-(2-hydroxypropan-2-yl)benzamide]
- IC50 (TEC): 3900 nM
- IC50 (Btk; [1]): 50.5 nM
